Experimental data taken from paper PMC5829263, “Homoarginine and inhibition of human arginase activity: kinetic characterization and biological relevance” (Scientific Reports, 2018).
Several values for one entry are separate records, joined by “and”; a condition that tells them apart may be missing. Equal entries are not always repeated. Where two headings read alike, the source gives them in different places. Values belong to the molecule of their own block, whether it stands above or below them.

Legend:
[1] = target: T1, recombinant human arginase 2 (Homo sapiens, UniProt P78540); test: Arginase 2 activity assay, kinetics of ARG conversion to ORN; type: biochemical
T1 sequence (P78540 23-354): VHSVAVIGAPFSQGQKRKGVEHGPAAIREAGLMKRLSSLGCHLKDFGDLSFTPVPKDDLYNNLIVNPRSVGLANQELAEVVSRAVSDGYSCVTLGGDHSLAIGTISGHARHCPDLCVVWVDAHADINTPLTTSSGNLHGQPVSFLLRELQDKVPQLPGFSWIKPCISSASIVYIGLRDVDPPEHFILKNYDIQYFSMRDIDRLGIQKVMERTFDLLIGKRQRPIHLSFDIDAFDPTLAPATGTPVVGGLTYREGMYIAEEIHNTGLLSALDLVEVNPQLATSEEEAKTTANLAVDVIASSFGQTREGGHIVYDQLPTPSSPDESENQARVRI

[2] = target: T2, recombinant human arginase 1 (Homo sapiens, UniProt P05089); test: Arginase 1 activity assay, kinetics of ARG conversion to ORN; type: biochemical; settings: conversion of ARG to ORN
T2 sequence (P05089 1-322): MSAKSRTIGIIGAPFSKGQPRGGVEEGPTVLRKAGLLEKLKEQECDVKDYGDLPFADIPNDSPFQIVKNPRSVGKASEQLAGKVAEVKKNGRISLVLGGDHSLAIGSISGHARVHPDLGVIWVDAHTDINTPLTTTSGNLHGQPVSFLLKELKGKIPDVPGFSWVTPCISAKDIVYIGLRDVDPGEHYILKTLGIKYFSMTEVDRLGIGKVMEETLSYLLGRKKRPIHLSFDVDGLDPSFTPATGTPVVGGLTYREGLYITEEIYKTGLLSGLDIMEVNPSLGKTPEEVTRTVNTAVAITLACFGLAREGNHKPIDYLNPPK
Experimental: Incubation mixtures contained HEK293T cell lysate expressing recombinant human arginase 1 (0.05 mg/mL) or arginase 2 (0.1 mg/mL), phosphate buffer (0.05 M, pH 7.4) and ARG (0 to 15 mM).
(§1) Following a 5-min pre-equilibration period reactions were initiated by the addition of the cell lysate solution in 0.05 M phosphate buffer to a pre-equilibrated aqueous solution of the substrate (ARG).
(§2) The samples were vortex mixed (20 sec) and cooled in an ice/water bath for 10 min prior to centrifugation (5 min, 18,000 × g, room temperature) to precipitate the proteins. An aliquot of the supernatant layer was diluted with a 7:3 mobile phase A/mobile phase B solution into glass UPLC vial inserts.
Kinetic data are the mean of three singlicate experiments.

arginase 2 = settings: cited from earlier work
arginase 1 = settings: arginase 1; range previously reported; cited from earlier work
[3] = target: T1, recombinant human arginase 2; test: Arginase 2 inhibition, UPLC-MS measurement of ARG to ORN conversion in HEK293T cell lysate; settings: for remaining activity at 1 µM / remaining activity at 10 µM / remaining activity at 100 µM / remaining activity at 1000 µM / remaining activity at 10000 µM: read-out: % of control activity at the corresponding [Inhibitor] ± SE, arginase 2, mean of two experiments; for remaining activity at 1 µM: inhibitor 1 µM; for remaining activity at 10 µM: inhibitor 10 µM; for remaining activity at 100 µM: inhibitor 100 µM; for remaining activity at 1000 µM: inhibitor 1,000 µM; for remaining activity at 10000 µM: inhibitor 10,000 µM; for inhibition at 1000 µM: inhibitor 1 mM; for inhibition at 10000 µM: inhibitor 10 mM;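 on all read-outs here: HEK293T lysate carrying arginase 2 at 0.1 mg/mL in 0.05 M phosphate buffer pH 7.4, inhibitor preincubated with enzyme 5 min before ARG addition started the reaction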
[4] = target: T2, recombinant human arginase 1; test: Arginase 1 inhibition, UPLC-MS measurement of ARG to ORN conversion in HEK293T cell lysate; settings: for remaining activity at 1 µM / remaining activity at 10 µM / remaining activity at 100 µM / remaining activity at 1000 µM / remaining activity at 10000 µM: read-out: % of control activity at the corresponding [Inhibitor] ± SE, arginase 1, mean of two experiments; for remaining activity at 1 µM: inhibitor 1 µM; for remaining activity at 10 µM: inhibitor 10 µM; for remaining activity at 100 µM: inhibitor 100 µM; for remaining activity at 1000 µM: inhibitor 1,000 µM; for remaining activity at 10000 µM: inhibitor 10,000 µM; for inhibition at 1000 µM: inhibitor 1 mM; for inhibition at 10000 µM: inhibitor 10 mM;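 on all read-outs here: arginase 1–expressing HEK293T lysate at 0.05 mg/mL in pH 7.4 phosphate buffer, inhibitor preincubated 5 min with enzyme, then reaction started by adding ARG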
Experimental: as §1, §2
Incubation mixtures comprised of HEK293T cell lysate expressing arginase 1 (0.05 mg/mL) or arginase 2 (0.1 mg/mL), phosphate buffer (0.05 M, pH 7.4), inhibitor (0, 0.1, 1, 10, 100, 1000 or 10000 μM) and ARG (0.1, 2 or 3 mM). Following a 5-min pre-incubation of the potential inhibitor with arginase 1 or arginase 2, reactions were initiated by the addition of a pre-equilibrated solution of the substrate ARG.
Ki values were derived from fitting the competitive inhibition equation to experimental data. Ki data are the mean of three singlicate experiments.

[5] = read-out: inhibition of arginase 2, ARG 100 µM
[6] = read-out: inhibition of arginase 2, ARG 2 mM
[7] = read-out: inhibition of arginase 1 activity, ARG 100 µM (physiological)
[8] = read-out: inhibition of arginase 1 activity, ARG 3 mM (Km)

SMILES: N=C(N)NCCC[C@H](N)C(=O)O [ARG, arginine]
Vmax (pmol·min^−1·mg^−1) ± SE ([1]; Expt 1): 984 ± 8 pmol/min/mg
Km ([1]; Expt 1, read-out: Km (mM) ± SE): 2.4 ± 0.1 mM
Vmax (pmol·min^−1·mg^−1) ± SE ([1]; Expt 2): 837 ± 12 pmol/min/mg
Km ([1]; Expt 2, read-out: Km (mM) ± SE): 1.7 ± 0.1 mM
Vmax (pmol·min^−1·mg^−1) ± SE ([1]; Expt 3): 834 ± 5 pmol/min/mg
Km ([1]; Expt 3, read-out: Km (mM) ± SE): 1.8 ± 0.1 mM
Vmax (pmol·min^−1·mg^−1) ± SE ([1]; Mean): 883 ± 16 pmol/min/mg
Km ([1]; Mean, read-out: Km (mM) ± SE): 1.9 ± 0.1 mM
Vmax (nmol·min^−1·mg^−1) ± SE ([2]; Expt 1): 37 ± 1 nmol/min/mg
Km ([2]; Expt 1, read-out: Km (mM) ± SE): 3.4 ± 0.4 mM
Vmax (nmol·min^−1·mg^−1) ± SE ([2]; Expt 2): 32 ± 1 nmol/min/mg
Km ([2]; Expt 2, read-out: Km (mM) ± SE): 3.8 ± 0.2 mM
Vmax (nmol·min^−1·mg^−1) ± SE ([2]; Expt 3): 35 ± 1 nmol/min/mg
Km ([2]; Expt 3, read-out: Km (mM) ± SE): 3.5 ± 0.2 mM
Vmax (nmol·min^−1·mg^−1) ± SE ([2]; Mean): 34 ± 1 nmol/min/mg
Km (arginase 2; arginase 2, range previously reported): 1000 to 7000 µM
Km (arginase 1): 1000 to 9000 µM

Ki [3]: 500 ± 30 µM
IC50 ([3]; IC50 ( ± SE), arginase 2, ARG 2 mM): 900 µM and 880 µM
inhibition model fitting the data ([3]; arginase 2, poorly fit by uncompetitive, noncompetitive and mixed models): competitive
inhibition of arginase 2 at physiological inhibitor concentrations ([3]; physiological LYS and HOMOARG concentrations): no significant inhibition
remaining activity at 1 µM ([3]; ARG 100 µM): 92 ± 6%
remaining activity at 10 µM ([3]; ARG 100 µM): 97 ± 5%
remaining activity at 100 µM ([3]; ARG 100 µM): 78 ± 11%
remaining activity at 1000 µM ([3]; ARG 100 µM): 56 ± 14%
remaining activity at 10000 µM ([3]; ARG 100 µM): 12 ± 4%
remaining activity at 1 µM ([3]; ARG 2 mM): 88 ± 6%
remaining activity at 10 µM ([3]; ARG 2 mM): 82 ± 6%
remaining activity at 100 µM ([3]; ARG 2 mM): 84 ± 5%
remaining activity at 1000 µM ([3]; ARG 2 mM): 58 ± 1%
remaining activity at 10000 µM ([3]; ARG 2 mM): 33 ± 4%
inhibition at 1000 µM [3, 5]: 44%
inhibition at 10000 µM [3, 5]: 88%
inhibition at 1000 µM [3, 6]: 42%
inhibition at 10000 µM [3, 6]: 67%
inhibitory effect on arginase 1 activity at physiological inhibitor concentrations ([4]; LYS 100–1000 µM, HOMOARG 1–10 µM): no significant inhibitory effects
inhibition model fitting the data ([4]; arginase 1, poorly fit by uncompetitive, noncompetitive and mixed models): competitive
remaining activity at 1 µM ([4]; ARG 100 µM): 88 ± 21%
remaining activity at 10 µM ([4]; ARG 100 µM): 89 ± 10%
remaining activity at 100 µM ([4]; ARG 100 µM): 105 ± 18%
remaining activity at 1000 µM ([4]; ARG 100 µM): 56 ± 5%
remaining activity at 10000 µM ([4]; ARG 100 µM): 19 ± 1%
remaining activity at 1 µM ([4]; ARG 3 mM): 108 ± 13%
remaining activity at 10 µM ([4]; ARG 3 mM): 103 ± 10%
remaining activity at 100 µM ([4]; ARG 3 mM): 82 ± 4%
remaining activity at 1000 µM ([4]; ARG 3 mM): 63 ± 8%
remaining activity at 10000 µM ([4]; ARG 3 mM): 22 ± 1%
inhibition at 1000 µM [4, 7]: 44%
inhibition at 10000 µM [4, 7]: 81%
inhibition at 1000 µM [4, 8]: 39%
inhibition at 10000 µM [4, 8]: 78%
SMILES: NCCCC[C@H](N)C(=O)O [LYS, lysine]
Ki (arginase 2; arginase 2 inhibition, ref Colleluori et al. 15): 7000 µM
